Measurements from ChEMBL document CHEMBL5352403, “Monoamine oxidase inhibitors: A concise review with special emphasis on structure activity relationship studies” (Eur J Med Chem, 2022).

Assays:
Homo sapiens [1] = species on record: Homo sapiens; assay: Selectivity index, ratio of IC50 for inhibition of recombinant human MAO-A to IC50 for inhibition of recombinant human MAO-B
[2] = target: T1, Amine oxidase [flavin-containing] B (Homo sapiens, UniProt P27338); assay: Inhibition of recombinant human MAO-B using p-tyramine as substrate incubated for 15 mins by Amplex Red reagent and horseradish peroxidase based fluorometric analysis
T1 sequence (P27338 whole entry): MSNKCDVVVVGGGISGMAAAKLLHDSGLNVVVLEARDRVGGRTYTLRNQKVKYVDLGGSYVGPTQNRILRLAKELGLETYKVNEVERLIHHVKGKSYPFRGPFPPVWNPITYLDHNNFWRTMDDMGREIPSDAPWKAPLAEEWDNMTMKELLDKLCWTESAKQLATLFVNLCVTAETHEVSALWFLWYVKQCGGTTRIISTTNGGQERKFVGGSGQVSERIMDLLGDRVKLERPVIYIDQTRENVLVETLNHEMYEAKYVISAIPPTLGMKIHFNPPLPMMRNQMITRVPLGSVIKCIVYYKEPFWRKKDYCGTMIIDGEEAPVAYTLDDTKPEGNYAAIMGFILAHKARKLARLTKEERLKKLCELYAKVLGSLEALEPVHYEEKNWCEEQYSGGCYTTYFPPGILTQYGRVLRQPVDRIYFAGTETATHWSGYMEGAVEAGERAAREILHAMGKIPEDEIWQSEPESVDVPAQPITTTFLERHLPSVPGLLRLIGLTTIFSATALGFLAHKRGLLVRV

[3] = target: T1, Amine oxidase [flavin-containing] B; assay: Reversible inhibition of recombinant human MAO-B incubated for 30 mins by dilution assay
[4] = target: T1, Amine oxidase [flavin-containing] B; assay: Inhibition of recombinant human MAO-B using kynuramine as substrate incubated for 20 mins by spectramax fluorescence microplate reader analysis
[5] = target: T1, Amine oxidase [flavin-containing] B; assay: Inhibition of recombinant human MAO-B using kynuramine as substrate incubated for 20 mins by fluorescence based assay
[6] = target: T2, Amine oxidase [flavin-containing] A (Homo sapiens, UniProt P21397); assay: Inhibition of recombinant human MAO-A using kynuramine as substrate incubated for 20 mins by fluorescence based assay
T2 sequence (P21397 whole entry): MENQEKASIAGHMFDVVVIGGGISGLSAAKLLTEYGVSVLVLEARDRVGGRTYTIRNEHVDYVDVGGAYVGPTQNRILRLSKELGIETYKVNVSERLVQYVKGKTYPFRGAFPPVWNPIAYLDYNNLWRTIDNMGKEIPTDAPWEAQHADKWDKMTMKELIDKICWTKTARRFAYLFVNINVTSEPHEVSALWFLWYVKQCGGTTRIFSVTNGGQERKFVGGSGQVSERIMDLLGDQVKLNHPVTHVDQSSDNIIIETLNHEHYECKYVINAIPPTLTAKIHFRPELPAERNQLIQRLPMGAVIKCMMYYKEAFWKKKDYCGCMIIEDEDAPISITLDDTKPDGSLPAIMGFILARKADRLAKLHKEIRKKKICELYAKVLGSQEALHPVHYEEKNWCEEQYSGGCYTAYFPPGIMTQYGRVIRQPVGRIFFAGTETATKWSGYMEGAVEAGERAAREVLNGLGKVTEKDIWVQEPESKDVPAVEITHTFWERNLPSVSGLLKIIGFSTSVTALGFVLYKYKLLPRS

[7] = target: T1, Amine oxidase [flavin-containing] B; assay: Inhibition of recombinant human MAO-B using kynuramine as substrate incubated for 30 mins by spectrophotometric assay
[8] = target: T1, Amine oxidase [flavin-containing] B; assay: Inhibition of recombinant human MAO-B using benzylamine as substrate incubated for 15 mins by spectrophotometric assay
[9] = target: T1, Amine oxidase [flavin-containing] B; assay: Inhibition of human MAO-B using p-tyramine as substrate incubated for 15 mins by horseradish peroxidase based fluorescence microplate reader analysis
[10] = target: T3, Amine oxidase [flavin-containing] B (Rattus norvegicus, UniProt P19643); assay: Inhibition of rat brain mitochondria MAO-B using p-tyramine as substrate incubated for 15 mins by Amplex Red reagent and horseradish peroxidase based fluorometric analysis
T3 sequence (P19643 whole entry): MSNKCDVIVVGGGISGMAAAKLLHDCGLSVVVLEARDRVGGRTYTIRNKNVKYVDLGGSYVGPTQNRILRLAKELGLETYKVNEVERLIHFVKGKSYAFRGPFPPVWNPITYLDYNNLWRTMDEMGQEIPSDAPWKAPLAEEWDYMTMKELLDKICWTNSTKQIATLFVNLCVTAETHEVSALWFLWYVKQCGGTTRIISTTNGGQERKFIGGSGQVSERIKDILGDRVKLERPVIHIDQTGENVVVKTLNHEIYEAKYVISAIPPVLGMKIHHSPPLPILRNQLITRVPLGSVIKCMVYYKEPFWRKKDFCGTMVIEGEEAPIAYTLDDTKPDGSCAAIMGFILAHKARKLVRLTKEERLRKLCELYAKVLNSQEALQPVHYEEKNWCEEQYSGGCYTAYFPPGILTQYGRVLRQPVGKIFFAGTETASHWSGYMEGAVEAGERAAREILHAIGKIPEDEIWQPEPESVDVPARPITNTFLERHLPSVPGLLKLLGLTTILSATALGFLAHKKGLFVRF

[11] = target: T1, Amine oxidase [flavin-containing] B; assay: Inhibition of recombinant human MAO-B using p-tyramine as substrate incubated for 60 mins by Amplex Red reagent and horseradish peroxidase based fluorescence microplate reader analysis
[12] = target: T2, Amine oxidase [flavin-containing] A; assay: Inhibition of human MAO-A
[13] = target: T1, Amine oxidase [flavin-containing] B; assay: Inhibition of recombinant human MAO-B using kynuramine as substrate incubated for 20 mins by spectrophotometric assay
[14] = target: T1, Amine oxidase [flavin-containing] B; assay: Inhibition of recombinant human MAO-B using benzylamine as substrate incubated for 30 mins by spectrophotometric assay
[15] = target: T2, Amine oxidase [flavin-containing] A; assay: Inhibition of recombinant human MAO-A using kynuramine as substrate incubated for 30 mins by fluorimetric analysis
[16] = target: T1, Amine oxidase [flavin-containing] B; assay: Inhibition of recombinant human MAO-B using kynuramine as substrate incubated for 30 mins by fluorimetric analysis
[17] = target: T1, Amine oxidase [flavin-containing] B; assay: Inhibition of human MAO-B using p-tyramine as substrate incubated for 10 mins by Amplex Red reagent and horseradish peroxidase based fluorescence analysis
[18] = Inhibition of goat liver MAO-B using p-tyramine as substrate incubated for 60 mins by spectrophotometric assay; format: tissue-based, Capra hircus
[19] = target: T2, Amine oxidase [flavin-containing] A; assay: Competitive inhibition of recombinant human MAO-A using tyramine hydrochloride as substrate by Ampliflu red reagent and horseradish peroxidase based fluorescence microplate reader analysis
Homo sapiens [20] = species on record: Homo sapiens; assay: Selectivity index, ratio of Ki for inhibition of human MAO-A to Ki for inhibition of human MAO-B
[21] = target: T2, Amine oxidase [flavin-containing] A; assay: Inhibition of recombinant human MAO-A using tyramine as substrate incubated for 60 mins by Ampliflu red reagent and horseradish peroxidase based fluorometric analysis
[22] = target: T1, Amine oxidase [flavin-containing] B; assay: Inhibition of recombinant human MAO-B expressed in baculovirus infected BTI-TN-5B1-4 insect cells using p-tyramine as substrate incubated for 15 mins by Amplex Red reagent and horseradish peroxidase based fluorometric analysis

Work on `O=C(c1ccccc1)N1CCN(c2ccccc2)CC1` yielded a Ratio IC50 (Homo sapiens [1]) of over 122.

`COc1cccc(-c2cc3cc(Cl)ccc3oc2=O)c1` gave an IC50 [2] of 1 nM.

Compound `O=C1CCc2ccc(OCc3ccccc3F)cc2O1` has an IC50 [3] of 4 nM and an IC50 [2] of 0.37 nM.

For `COc1ccc2oc(/C=C/c3ccc(Cl)cc3)cc(=O)c2c1`, the IC50 [4] was 17 nM.

`CCOC(=O)C(C(=O)N/N=C/c1ccc([N+](=O)[O-])cc1)[n+]1ccc2ccccc2c1` (stereo not given) showed an IC50 [5] of 20 nM and an IC50 [6] of 47 nM.

For `C#CCN(C)c1ccc(/C=C/c2cnc(C)c3c2COC(C)(C)O3)cc1`, the IC50 [7] was 10 nM.

With `CSc1ccc(C(=O)/C=C/c2cccc3c2OCO3)cc1` the IC50 [8] was 650 nM.

Compound `O=c1cc(CCCl)c2ccc(OCc3cccc(Cl)c3)cc2o1` has an IC50 [2] of 0.37 nM.

`Cc1cc(=O)c(O)c(CO)n1CCCn1cc(COc2cc3ccccc3oc2=O)nn1` gave an IC50 [9] of 680 nM and an IC50 [10] of 5 nM.

Work on `c1ccc(C(c2ccccc2)N2CCN(c3c4ccccc4cc4ccccc34)CC2)cc1` yielded a Ratio IC50 (Homo sapiens [1]) of over 150.

Compound `CCOc1ccccc1N1CCN(c2ccc(-c3nc4cc(C)ccc4[nH]3)cc2)CC1` has an IC50 [11] of 53 nM.

In the case of `O=C(/C=C/c1ccc(Cl)cc1)c1ccc2c(c1)OCO2`, the IC50 [5] is reported as 20 nM, the IC50 [12] is reported as 107 nM and the IC50 [6] is reported as 47 nM.

Work on `Oc1cc(Cl)ccc1NC(=S)Nc1ccc2[nH]ccc2c1` yielded an IC50 [13] of 638 nM.

`N/N=C/c1ccc(Cl)cc1` gave an IC50 [14] of 2 nM.

With `Cc1ccc2oc(=O)c(-c3ccc([N+](=O)[O-])cc3)cc2c1` the IC50 [9] was 860 nM.

In the case of `O=C(CSc1nc2cc(Cl)ccc2s1)N(Cc1cccc([N+](=O)[O-])c1)c1ccc(F)cc1`, the IC50 [15] is reported as 17000 nM and the IC50 [16] is reported as 2950 nM.

Work on `O=c1oc2cc(Br)ccc2cc1-c1ccc(Br)nn1` yielded an IC50 [17] of 60 nM.

Compound `COc1ccc(-c2cc3cc(Cl)ccc3oc2=O)cc1` has an IC50 [2] of 4 nM.

Work on `Cc1c(/N=C/c2ccc(O)cc2)c(=O)n(-c2ccccc2)n1C` yielded an IC50 [7] of 10 nM.

Work on `OCC/N=C/c1cn(-c2ccccc2)nc1-c1ccc(Cl)cc1` yielded an IC50 [18] of 600 nM.

Work on `O=[N+]([O-])c1ccc(-c2csc(N/N=C(/CSc3nc4ccccc4s3)c3ccccc3)n2)cc1` yielded an IC50 [19] of 95 nM.

`Cc1cc(S(=O)(=O)N2CCN(C(c3ccccc3)c3ccccc3)CC2)c(C)cc1Cl` gave a Ratio IC50 (Homo sapiens [1]) of 0.07.

`NC(=S)N1N=C(c2ccco2)CC1c1ccc(F)cc1` (stereo not given) showed a Ratio Ki (Homo sapiens [20]) of 0.11.

Compound `OCC/N=C/c1cn(-c2ccccc2)nc1-c1ccc(F)cc1` has an IC50 [18] of 380 nM.

Work on `CN1CCN(c2ccc(/C=N/Nc3ccccc3)cc2)CC1` yielded an IC50 [21] of 28 nM.

`C/N=C/c1cn(-c2ccccc2)nc1-c1ccc(F)cc1` gave an IC50 [18] of 340 nM and an IC50 [22] of 24 nM.

Compound `COCCNc1nnc(SCC(=O)Nc2nc3ccc([N+](=O)[O-])cc3s2)s1` has an IC50 [12] of 107 nM.

`O=C(NNc1nc2ccccc2nc1Cc1ccccc1)c1ccc(O)cc1` showed an IC50 [4] of 17 nM.
